Measured values from patent publication US20230002324A1, “NAPHTHOQUINONE DERIVATIVES FOR TREATMENT OF OXIDATIVE STRESS DISORDERS” (PTC THERAPEUTICS, INC., priority 2019, published 2023).

These compounds were tested on Q7 cells (ST HDH Q7/7; immortalized mouse striatal cells) (assay: Q7 Cystine Deprivation cell survival (rescue) assay). Details: 18 h, read-out: Q7 Cystine Deprivation Survival EC50.
Format: cell-based
Text: In neuronal cells excess extracellular glutamate inhibits the cystine/glutamate antiporter leading to intracellular cysteine depletion, GSH depletion, reactive oxygen species (ROS) production and cell death, a phenomenon termed oxidative glutamate toxicity, oxytosis, or ferroptosis. […] Q7 cells (ST HDH Q7/7; immortalized mouse striatal cells) challenged with cystine-free media or the selective, irreversible GPX4 inhibitor, methyl (1S,3R)-2-(2-chloroacetyl)-1-(4-(methoxycarbonyl)phenyl)-2,3,4,9-tetrahydro-1H-pyrido[3,4-b]indole-3-carboxylate (hereafter referred to as RSL3), recapitulate this phenotype, as do normal human fibroblasts (NHF) challenged with RSL3. An initial screen was performed to identify compounds effective in rescuing Q7 and/or NHF cells from death resulting from cystine deprivation or RSL3 challenge. This method is further described in Yonezawa et al., J. Neurochem 67, 566-573 (1996), Li et al., J Neurosci., 23, 5816-5826 (2003), Yang and Stockwell, Chem Biol., 15: 234-45 (2008), and Yang et al., Cell 156, 317-331 (2014). See also Hinman A, Holst C R, Latham J C, et al. Vitamin E hydroquinone is an endogenous regulator of ferroptosis via redox control of 15-lipoxygenase. PLoS One. 2018; 13(8):e0201369. Published 2018 Aug. 15. doi:10.1371/journal.pone.0201369; and Kahn-Kirby A H, Amagata A, Maeder C I, et al. Targeting ferroptosis: A novel therapeutic strategy for the treatment of mitochondrial disease-related epilepsy. PLoS One. 2019; 14(3):e0214250. Published 2019 Mar. 28. doi:10.1371/journal.pone.0214250.
DMEM (Catalog no. 11995-040), DMEM without Cystine (Catalog no. 21013-024), DMEM without Glucose (Catalog A1443001), PBS (Phosphate buffered saline), Penicillin-streptomycin mix, L-Glutamine, Glucose, Phenol Red, and Pyruvate were purchased from ThermoFisher Scientific (Gibco). Fetal Bovine Serum was obtained from Mediatech, Inc., or Sigma Aldrich. Mouse striatum derived ST HDH Q7/7 (Q7) and normal human skin fibroblast (NHF, product number GM21811) cells were obtained from the Coriell Institute. Methionine and Vitamin K2 were purchased from Sigma Aldrich. RSL3 was synthesized as previously described (see e.g. US Patent Publication US2010/0081654). Cell Titer Glo 2.0 was purchased from Promega. Q7 cell culture medium (Q7 growth medium) was made by combining 50 mL Fetal Bovine Serum, 100 U/mL penicillin, and 100 microgram/mL streptomycin; DMEM was added to make the volume up to 500 mL. Assay medium for the Cystine Deprivation assay was prepared by combining 50 mL Fetal Bovine Serum, 100 U/mL penicillin, 100 microgram/mL streptomycin, 4 mM L-Glutamine, 1 mM Pyruvate and 30 mg/L Methionine; DMEM without Cystine was added to make the volume up to 500 mL. NHF cell culture medium (NHF growth medium) was made by combining 50 mL Fetal Bovine Serum, 100 U/mL penicillin, 100 microgram/mL streptomycin, 2.8 mL 20% Glucose solution (final concentration 6 mM), L-glutamine (final concentration 2 mM), phenol red (final concentration 15 mg/L); DMEM without Glucose was added to make the volume up to 500 mL. Assay medium for the RSL3 challenge assay was identical to Growth medium. While not in use during the course of the experiments, these solutions were stored at 4° C. The cells were grown in 150-cm^2 tissue culture-treated flasks. Every third or fourth day, the cells were sub-cultured by trypsinization and re-seeded at a cell density of 600,000 (Q7) or 300,000 (NHF) cells per flask.
Q7 or NHF cells were cultured routinely as described herein. For 384-well cell survival assays, cells were seeded in clear bottom, black wall 384-well tissue culture-treated polystyrene plates by re-suspending a cell suspension at a density of 50,000 cells/mL in growth medium, then dispensing 60 microliters of cell suspension per well using either an electronic multichannel pipette or a Multidrop™ Combi Reagent Dispenser (ThermoFisher Scientific), corresponding to 3,000 cells/well. […]
For `COc1cc2c(cc1OC)C(=O)C(Cc1ccc(C(F)(F)F)cn1)=C(C)C2=O` [Example 41, 6,7-dimethoxy-2-methyl-3-((5-(trifluoromethyl)pyridin-2-yl)methyl)naphthalene-1,4-dione], the EC50 was under 50 nM.

Same assay, conditions: Q7 cells, cystine-free medium, 18 h, Cell Titer Glo, 50% relative viability vs Vitamin K2 (1 micromolar), read-out: Q7 Cystine Deprivation Survival EC50
Work on `CC1=C(Cc2cc(C(F)(F)F)c(F)cn2)C(=O)c2ccccc2C1=O` [Example 2, 2-((5-fluoro-4-(trifluoromethyl)pyridin-2-yl)methyl)-3-methylnaphthalene-1,4-dione] yielded an EC50 of under 50 nM. In the case of `CC1=C(Cc2cc(C)c(F)cn2)C(=O)c2ccccc2C1=O` [Example 3, 2-((5-fluoro-4-methylpyridin-2-yl)methyl)-3-methylnaphthalene-1,4-dione], the EC50 is reported as under 50 nM. `CC1=C(Cc2cc(C)c(C(F)(F)F)cn2)C(=O)c2ccccc2C1=O` [Example 4, 2-methyl-3-((4-methyl-5-(trifluoromethyl)pyridin-2-yl)methyl)naphthalene-1,4-dione] gave an EC50 of under 50 nM. Compound `CC1=C(Cc2ccc(C)nn2)C(=O)c2ccccc2C1=O` [Example 5, 2-methyl-3-((6-methylpyridazin-3-yl)methyl)naphthalene-1,4-dione] has an EC50 of under 50 nM. `CC1=C(Cc2ccc(C)cn2)C(=O)c2ccccc2C1=O` [Example 7, 2-methyl-3-((5-methylpyridin-2-yl)methyl)naphthalene-1,4-dione] was tested, and the EC50 was under 50 nM. Work on `CC1=C(Cc2cccc(C(F)(F)F)n2)C(=O)c2ccccc2C1=O` [Example 8, 2-methyl-3-((6-(trifluoromethyl)pyridin-2-yl)methyl)naphthalene-1,4-dione] yielded an EC50 of under 50 nM. `CC1=C(Cc2ccc(C(F)(F)F)nn2)C(=O)c2ccccc2C1=O` [Example 10, 2-methyl-3-((6-(trifluoromethyl)pyridazin-3-yl)methyl)naphthalene-1,4-dione] was tested, and the EC50 was under 50 nM. `CC1=C(Cc2cc(C(F)(F)F)cnn2)C(=O)c2ccccc2C1=O` [Example 11, 2-methyl-3-((5-(trifluoromethyl)pyridazin-3-yl)methyl)naphthalene-1,4-dione] gave an EC50 of under 50 nM. Work on `CC1=C(Cc2cccnn2)C(=O)c2ccccc2C1=O` [Example 12, 2-methyl-3-(pyridazin-3-ylmethyl)naphthalene-1,4-dione] yielded an EC50 of under 50 nM. Work on `CC1=C(Cc2cc(C)c(C)nn2)C(=O)c2ccccc2C1=O` [Example 13, 2-((5,6-dimethylpyridazin-3-yl)methyl)-3-methylnaphthalene-1,4-dione] yielded an EC50 of under 50 nM. `CC1=C(Cc2ccc(C(N)=O)nn2)C(=O)c2ccccc2C1=O` [Example 14, 6-((3-methyl-1,4-dioxo-1,4-dihydronaphthalen-2-yl)methyl)pyridazine-3-carboxamide] gave an EC50 of under 50 nM. `CC1=C(Cc2cc(C)cnn2)C(=O)c2ccccc2C1=O` [Example 15, 2-methyl-3-((5-methylpyridazin-3-yl)methyl)naphthalene-1,4-dione] gave an EC50 of under 50 nM. Work on `CCOc1cnnc(CC2=C(C)C(=O)c3ccccc3C2=O)c1` [Example 16, 2-((5-ethoxypyridazin-3-yl)methyl)-3-methylnaphthalene-1,4-dione] yielded an EC50 of under 50 nM. For `COc1nnc(CC2=C(C)C(=O)c3ccccc3C2=O)cc1C(F)(F)F` [Example 17, 2-((6-methoxy-5-(trifluoromethyl)pyridazin-3-yl)methyl)-3-methylnaphthalene-1,4-dione], the EC50 was under 50 nM. `COc1nnc(CC2=C(C)C(=O)c3ccccc3C2=O)cc1C` [Example 18, 2-((6-methoxy-5-methylpyridazin-3-yl)methyl)-3-methylnaphthalene-1,4-dione] showed an EC50 of over 1000 nM. `CC1=C(Cc2ncc(C(F)(F)F)cn2)C(=O)c2ccccc2C1=O` [Example 19, 2-methyl-3-((5-(trifluoromethyl)pyrimidin-2-yl)methyl)naphthalene-1,4-dione] was tested, and the EC50 was under 50 nM. `O=C1C=C(Cc2ccc(C(F)(F)F)cn2)C(=O)c2ccccc21` [Example 25, 2-((5-(trifluoromethyl)pyridin-2-yl)methyl)naphthalene-1,4-dione] showed an EC50 of 250 to 1000 nM. `CC(C)CCC1=C(Cc2ccc(C(F)(F)F)cn2)C(=O)c2ccccc2C1=O` [Example 34, 2-isopentyl-3-((5-(trifluoromethyl)pyridin-2-yl)methyl)naphthalene-1,4-dione] was tested, and the EC50 was 50 to 250 nM. Compound `COc1ccc2c(c1)C(=O)C(Cc1ccc(C(F)(F)F)cn1)=C(C)C2=O` [Example 36, 6-methoxy-2-methyl-3-((5-(trifluoromethyl)pyridin-2-yl)methyl)naphthalene-1,4-dione] has an EC50 of under 50 nM. Work on `COc1ccc2c(c1)C(=O)C(C)=C(Cc1ccc(C(F)(F)F)cn1)C2=O` [Example 37, 6-methoxy-3-methyl-2-((5-(trifluoromethyl)pyridin-2-yl)methyl)naphthalene-1,4-dione] yielded an EC50 of under 50 nM. `Cc1ccc(CC2=C(C3CC3)C(=O)c3ccccc3C2=O)nc1` [Example 38, 2-cyclopropyl-3-((5-methylpyridin-2-yl)methyl)naphthalene-1,4-dione] gave an EC50 of under 50 nM. Compound `COc1cccc2c1C(=O)C(C)=C(Cc1ccc(C(F)(F)F)cn1)C2=O` [Example 40, 5-methoxy-3-methyl-2-((5-(trifluoromethyl)pyridin-2-yl)methyl)naphthalene-1,4-dione] has an EC50 of under 50 nM. With `CC1=C(Cc2ccc(C(F)(F)F)cn2)C(=O)c2cc(F)ccc2C1=O` [Example 45, 6-fluoro-2-methyl-3-((5-(trifluoromethyl)pyridin-2-yl)methyl)naphthalene-1,4-dione] the EC50 was under 50 nM. For `CC1=C(Cc2ccc(C(F)(F)F)cn2)C(=O)c2cccc(F)c2C1=O` [Example 46, 5-fluoro-3-methyl-2-((5-(trifluoromethyl)pyridin-2-yl)methyl)naphthalene-1,4-dione], the EC50 was under 50 nM. `CCCC1=C(Cc2ccc(Cl)cn2)C(=O)c2ccccc2C1=O` [Example 106, 2-((5-chloropyridin-2-yl)methyl)-3-propylnaphthalene-1,4-dione] was tested, and the EC50 was under 50 nM. `CCCC1=C(Cc2ccc(C(F)(F)F)nn2)C(=O)c2ccccc2C1=O` [Example 107, 2-propyl-3-((6-(trifluoromethyl)pyridazin-3-yl)methyl)naphthalene-1,4-dione] gave an EC50 of under 50 nM. Work on `CCCC1=C(Cc2ncc(C(F)(F)F)cc2F)C(=O)c2ccccc2C1=O` [Example 108, 2-((3-fluoro-5-(trifluoromethyl)pyridin-2-yl)methyl)-3-propylnaphthalene-1,4-dione] yielded an EC50 of 50 to 250 nM. In the case of `CCCC1=C(Cc2cc(C#N)c(F)cn2)C(=O)c2ccccc2C1=O` [Example 110, 2-((1,4-dioxo-3-propyl-1,4-dihydronaphthalen-2-yl)methyl)-5-fluoroisonicotinonitrile], the EC50 is reported as under 50 nM. Compound `CCCC1=C(Cc2ncc(F)cc2C)C(=O)c2ccccc2C1=O` [Example 111, 2-((5-fluoro-3-methylpyridin-2-yl)methyl)-3-propylnaphthalene-1,4-dione] has an EC50 of 50 to 250 nM. Work on `CCCC1=C(Cc2ccc(F)c(C#N)n2)C(=O)c2ccccc2C1=O` [Example 112, 6-((1,4-dioxo-3-propyl-1,4-dihydronaphthalen-2-yl)methyl)-3-fluoropicolinonitrile] yielded an EC50 of under 50 nM. In the case of `CCCC1=C(Cc2ccc(C)cn2)C(=O)c2ccccc2C1=O` [Example 115, 2-((5-methylpyridin-2-yl)methyl)-3-propylnaphthalene-1,4-dione], the EC50 is reported as under 50 nM. Work on `CCCC1=C(Cc2ncc(F)cc2F)C(=O)c2ccccc2C1=O` [Example 117, 2-((3,5-difluoropyridin-2-yl)methyl)-3-propylnaphthalene-1,4-dione] yielded an EC50 of under 50 nM.
